According to publication PMC6471485, “Selective Inhibitors of a Human Prolyl Hydroxylase (OGFOD1) Involved in Ribosomal Decoding” (Chemistry (Weinheim an Der Bergstrasse, Germany), 2019):
Several values for one entry are separate records, joined by “and”; a condition that tells them apart may be missing. Equal values may be shown once. Entries after “also recorded” stand apart in the source; their conditions may differ.

Experiments:
[1] = target: T1, OGFOD1 (Homo sapiens, UniProt Q8N543); test: OGFOD1 inhibition assay: hydroxylation of RPS23 51-70 peptide by MALDI-TOF MS; assay type: biochemical; details: IC50 against OGFOD1, 1 μM OGFOD1; minimum measurable IC50 0.5 μM; values for 24 and 25 regarded as preliminary
T1 sequence (Q8N543 1-542): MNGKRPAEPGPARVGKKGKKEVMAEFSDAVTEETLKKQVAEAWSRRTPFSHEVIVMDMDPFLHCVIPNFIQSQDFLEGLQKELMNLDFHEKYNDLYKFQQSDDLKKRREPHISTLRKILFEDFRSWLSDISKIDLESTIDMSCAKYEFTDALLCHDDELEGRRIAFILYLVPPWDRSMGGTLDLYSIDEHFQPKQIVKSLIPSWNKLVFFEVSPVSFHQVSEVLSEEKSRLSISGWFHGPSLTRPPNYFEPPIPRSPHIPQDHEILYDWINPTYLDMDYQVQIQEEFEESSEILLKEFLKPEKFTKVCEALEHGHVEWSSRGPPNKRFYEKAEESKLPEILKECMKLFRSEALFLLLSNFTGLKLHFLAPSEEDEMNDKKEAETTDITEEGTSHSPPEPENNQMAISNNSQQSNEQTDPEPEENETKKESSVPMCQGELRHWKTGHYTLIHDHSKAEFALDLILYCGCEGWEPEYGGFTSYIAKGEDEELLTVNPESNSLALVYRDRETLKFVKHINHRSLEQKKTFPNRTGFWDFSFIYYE
Procedure: OGFOD1 inhibition assays were performed by determining the extent of hydroxylation of a 20mer fragment of human ribosomal protein S23 (RPS23) containing residues 51-70 (H2N- […]
-CONH2) by matrix-assisted laser desorption/ionization time-of-flight mass spectrometry (MALDI-TOF MS) using a Waters Micromass MALDI micro MX mass spectrometer and MassLynx 4.1, as previously described.[7,8] The optimized hydroxylation assay involved incubation of OGFOD1 (1 µM) with inhibitor (1 % v/v in DMSO) in the presence of (NH4)2Fe(SO4)2 (50 µM), the disodium salt of 2-oxoglutarate (25 µM), […]
OGFOD1 was pre-incubated with inhibitor for 5 min before initiation of the reaction via the addition of the other reagents. Reactions were quenched with formic acid (1 % v/v) after 15 min. Samples were prepared for MALDI using α-cyano-4-hydrocinnamic acid (CHCA; prepared in 50 % acetonitrile) as a matrix. Dose-responses were assessed in 8-point triplicates, normalized to a no enzyme negative control and a no inhibitor positive control. Non-linear regression analysis was performed using Prism (GraphPad). […]

[2] = target: FIH (Homo sapiens, UniProt Q9NWT6); test: FIH assay, MALDI-TOF MS detection of hydroxylation; assay type: biochemical
FIH, sequence (Q9NWT6 whole entry): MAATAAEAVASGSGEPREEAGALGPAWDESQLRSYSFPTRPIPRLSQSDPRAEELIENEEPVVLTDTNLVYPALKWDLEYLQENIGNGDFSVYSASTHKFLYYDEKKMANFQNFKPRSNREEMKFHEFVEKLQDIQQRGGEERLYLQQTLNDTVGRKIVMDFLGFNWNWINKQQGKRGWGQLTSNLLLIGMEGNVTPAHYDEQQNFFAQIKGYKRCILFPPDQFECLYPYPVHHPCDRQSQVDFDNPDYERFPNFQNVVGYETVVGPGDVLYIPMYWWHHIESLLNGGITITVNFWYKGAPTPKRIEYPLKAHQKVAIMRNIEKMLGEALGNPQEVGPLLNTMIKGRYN

[3] = target: JARID1B (Homo sapiens, UniProt Q9UGL1); test: JARID1B AlphaScreen-based assay; assay type: biochemical
JARID1B, sequence (Q9UGL1 whole entry): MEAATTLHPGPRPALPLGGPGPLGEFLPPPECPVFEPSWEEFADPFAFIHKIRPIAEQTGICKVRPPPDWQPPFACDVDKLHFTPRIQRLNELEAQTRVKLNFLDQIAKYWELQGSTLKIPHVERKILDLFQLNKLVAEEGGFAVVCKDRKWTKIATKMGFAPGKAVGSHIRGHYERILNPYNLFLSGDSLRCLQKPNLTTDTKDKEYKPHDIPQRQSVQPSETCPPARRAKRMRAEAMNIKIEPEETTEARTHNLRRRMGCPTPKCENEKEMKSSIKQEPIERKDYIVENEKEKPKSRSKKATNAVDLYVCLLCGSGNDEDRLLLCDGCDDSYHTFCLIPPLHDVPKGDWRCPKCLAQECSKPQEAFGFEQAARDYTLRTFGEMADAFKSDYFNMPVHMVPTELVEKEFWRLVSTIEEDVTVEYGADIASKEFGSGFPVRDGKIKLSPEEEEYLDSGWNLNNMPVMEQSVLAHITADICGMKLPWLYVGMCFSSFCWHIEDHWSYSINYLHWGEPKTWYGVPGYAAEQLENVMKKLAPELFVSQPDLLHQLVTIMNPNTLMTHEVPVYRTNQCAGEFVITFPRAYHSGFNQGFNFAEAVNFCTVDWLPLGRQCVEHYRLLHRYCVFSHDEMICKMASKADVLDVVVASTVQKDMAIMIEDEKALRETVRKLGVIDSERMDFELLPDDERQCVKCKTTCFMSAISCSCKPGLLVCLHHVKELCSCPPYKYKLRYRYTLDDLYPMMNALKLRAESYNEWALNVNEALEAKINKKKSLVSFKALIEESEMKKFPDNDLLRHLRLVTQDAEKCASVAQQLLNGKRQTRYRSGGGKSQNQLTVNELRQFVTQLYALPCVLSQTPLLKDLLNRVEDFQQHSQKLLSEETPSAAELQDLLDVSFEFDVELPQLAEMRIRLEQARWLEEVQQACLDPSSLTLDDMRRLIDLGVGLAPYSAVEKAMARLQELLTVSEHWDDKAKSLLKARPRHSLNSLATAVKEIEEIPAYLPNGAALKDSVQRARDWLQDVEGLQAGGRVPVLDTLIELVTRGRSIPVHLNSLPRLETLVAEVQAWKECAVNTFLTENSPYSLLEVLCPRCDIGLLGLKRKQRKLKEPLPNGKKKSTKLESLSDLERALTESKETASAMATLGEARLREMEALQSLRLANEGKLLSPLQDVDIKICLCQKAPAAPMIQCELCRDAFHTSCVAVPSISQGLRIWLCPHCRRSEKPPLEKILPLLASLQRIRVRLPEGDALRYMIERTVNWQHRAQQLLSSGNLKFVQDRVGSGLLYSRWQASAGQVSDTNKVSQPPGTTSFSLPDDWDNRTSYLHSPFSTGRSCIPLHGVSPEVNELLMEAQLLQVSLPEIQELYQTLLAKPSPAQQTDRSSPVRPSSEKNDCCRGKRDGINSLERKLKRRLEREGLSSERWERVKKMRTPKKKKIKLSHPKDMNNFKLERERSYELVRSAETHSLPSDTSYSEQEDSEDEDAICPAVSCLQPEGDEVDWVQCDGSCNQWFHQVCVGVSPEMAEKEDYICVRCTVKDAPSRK
Procedure: reactions were quenched after 4 min. KDM4A inhibition was tested as described previously using a formaldehyde dehydrogenase (FDH) assay.[9] JARID1B and JARID1C inhibition was tested as described previously using reported AlphaScreen-based assays.[10] MINA531-464 and NO66116-641 were cloned into pFB-LIC-Bse, and the N-terminal His-tagged proteins were produced in Sf9 insect cells. The MINA53 peptide substrate Rpl27a […]
(Gly31 – Pro49 […]) and the NO66 peptide substrate Rpl8
(Asn205 – Thr224 […]) were synthesized by Peptide Protein
Research Ltd (Fareham, Hampshire, UK) to >95% purity. IC50 determinations were performed in 384-well polypropylene plates (Greiner Bio One, Cat Number 781096), and compound dispenses were performed using an ECHO 550 acoustic dispenser (Labcyte, Sunnyvale, CA).
NO66 (diluted to 375 nM in 50 mM MES pH 7.0, 150 mM NaCl) and MINA53 (diluted to 187.5 nM in 50 mM HEPES pH 7.5, 50 mM NaCl) were dispensed (40 µL) into 384-well compound plates using a multidrop combi reagent dispenser (Thermo Scientific, Code 5840300) with a small tube plastic tip dispensing cassette (Thermo Scientific, Code 24073290).
NO66 and MINA53 were pre-incubated with compound for 15 minutes, and the enzyme reaction initiated by dispensing 10 µL of substrate solution [250 µM (NH4)2Fe(SO4)2, 500 µM sodium ascorbate, 25 µM 2OG, 25 µM peptide] in optimized enzyme buffer. […]

[4] = MDR1-MDCK in vitro permeability assay (Cyprotex); assay type: in vitro ADME; details: dog; MDR1-MDCK; read-out: permeability coefficient
Procedure: (§1) supplemented with 80 µM Zn(II), 70 µM of inhibitor, all in 50 mM Tris-d11, pH 7.5, 10 % D2O, […]
(§2) Cell Culture and Immunoblotting
(§3) HeLa cells were cultured in DMEM media supplemented with 10 % fetal bovine serum, 4 mM L-glutamine, 100 U/mL penicillin, and 100 µg/mL streptomycin. Cells were treated with the indicated compounds, prepared in 1% DMSO, for 5 h. Following a PBS buffer rinse, cells were lysed in urea/SDS buffer supplemented with 1 mM dithiothreitol. Cell extracts were analyzed by SDS-PAGE, electroblotted onto PVDF membranes (Millipore) and probed with anti-HIF-1α antibody (clone 54, BD Transduction Laboratories) at 1:1000 dilution for 1 h at room temperature. The HRP-conjugated secondary antibody was then applied at room temperature for 1 h. Target proteins were detected with SuperSignal Chemiluminescent […]
(§4) ADMET in vitro Predictors
(§5) S9 liver microsome stability assays and MDCK-MDR1 efflux assays were carried out for CCT3 and CCT4 by Cyprotex (UK). Additional details are provided later in the Supporting […]
(§6) The solubility and metabolic stability of CCT3 and CCT4 was preliminarily evaluated using a S9 liver microsome assay (Cyprotex, UK). According to the assay, CCT3 and CCT4 had […]
(§7) respectively, and are thus classified as having low clearance (< 8.6 µL/min/mg protein).
(§8) The cell permeability of CCT3 and CCT4 were evaluated using an MDR1-MDCK in vitro […]
(§9) able to penetrate the blood-brain barrier. The permeability coefficients were determined to be

[5] = tested on: MDR1-MDCK; test: MDR1-MDCK in vitro permeability assay (Cyprotex); assay type: in vitro ADME; details: for cell permeability, in words: MDR1-MDCK; for predicted blood-brain barrier permeability, in words: prediction from MDR1-MDCK assay
Procedure: as §1, §2, §3, §4, §5, §6, §7, §8, §9

Compound | IC50 [1] | IC50 [2] [nM] | IC50 [3] [nM] | Papp [4] [×10⁻⁶ cm/s] | cell permeability, in words [5] | predicted blood-brain barrier permeability, in words ([5]; listed as CCT3) | predicted blood-brain barrier permeability, in words ([5]; listed as CCT4)
Cn1c(O)c(C(=O)CCc2ccccc2)c(=O)n(C)c1=O [compound 26] | 700 nM and 730 nM and < 1000 nM | > 100000 | > 100000 | 58.5 | good cell permeability properties | brain uptake is likely; also recorded: predicted to be permeable to the blood brain barrier | –
Cn1c(O)c(C(=O)CCc2cccs2)c(=O)n(C)c1=O [compound 42] | 690 nM and < 1000 nM | > 100000 | > 100000 | 62.7 | good cell permeability properties | – | brain uptake is likely; also recorded: predicted to be permeable to the blood brain barrier
